Laboratory results published in PMC8699473, “An Easily Expandable Multi-Drug LC-MS Assay for the Simultaneous Quantification of 57 Oral Antitumor Drugs in Human Plasma” (Cancers, 2021).

Test: Long-term stability in spiked pooled human plasma

Row | SMILES | Long-term stability, 1 month, -20°C Accuracy [%] (validation standard 2xLLOV) | Long-term stability, 1 month, -80°C Accuracy [%] (validation standard 2xLLOV) | Long-term stability, 2 month, -20°C Accuracy [%] (validation standard 2xLLOV) | Long-term stability, 2 month, -80°C Accuracy [%] (validation standard 2xLLOV) | Long-term stability, 3 month, -20°C Accuracy [%] (validation standard 2xLLOV) | Long-term stability, 3 month, -80°C Accuracy [%] (validation standard 2xLLOV) | Long-term stability, 6 weeks, 4°C, without daylight Accuracy [%] (validation standard 2xLLOV) | Long-term stability, 1 month, -20°C Accuracy [%] (validation standard LLOV) | Long-term stability, 1 month, -80°C Accuracy [%] (validation standard LLOV) | Long-term stability, 2 month, -20°C Accuracy [%] (validation standard LLOV) | Long-term stability, 2 month, -80°C Accuracy [%] (validation standard LLOV) | Long-term stability, 3 month, -20°C Accuracy [%] (validation standard LLOV) | Long-term stability, 3 month, -80°C Accuracy [%] (validation standard LLOV) | Long-term stability, 6 weeks, 4°C, without daylight Accuracy [%] (validation standard LLOV) | Long-term stability, 1 month, -20°C Accuracy [%] (validation standard MOV) | Long-term stability, 1 month, -80°C Accuracy [%] (validation standard MOV) | Long-term stability, 2 month, -20°C Accuracy [%] (validation standard MOV) | Long-term stability, 2 month, -80°C Accuracy [%] (validation standard MOV) | Long-term stability, 3 month, -20°C Accuracy [%] (validation standard MOV) | Long-term stability, 3 month, -80°C Accuracy [%] (validation standard MOV) | further results
1 | CCN1CCN(Cc2ccc(Nc3ncc(F)c(-c4cc(F)c5nc(C)n(C(C)C)c5c4)n3)nc2)CC1 [Abemaciclib] | 95.0 | 90.1 | 109.1 | 111.4 | 98.8 | 103.4 | 92.0 | 103.5 | 88.4 | 107.2 | 112.7 | 95.7 | 101.8 | 86.3 | 103.0 | 96.2 | 107.3 | 105.5 | 104.4 | 101.8 | Long-term stability, 6 weeks, 4°C, without daylight Accuracy [%] (validation standard MOV): 106.3%; Long-term stability, 1 month, -20°C Accuracy [%] (validation standard ULOV): 102.4%; Long-term stability, 1 month, -80°C Accuracy [%] (validation standard ULOV): 97.8%; Long-term stability, 2 month, -20°C Accuracy [%] (validation standard ULOV): 106.0%; Long-term stability, 2 month, -80°C Accuracy [%] (validation standard ULOV): 105.1%; Long-term stability, 3 month, -20°C Accuracy [%] (validation standard ULOV): 103.5%; Long-term stability, 3 month, -80°C Accuracy [%] (validation standard ULOV): 99.9%; Long-term stability, 6 weeks, 4°C, without daylight Accuracy [%] (validation standard ULOV): 99.1%
2 | CS(=O)(=O)c1ccc(C(=O)Nc2ccc(Cl)c(-c3ccccn3)c2)c(Cl)c1 [Vismodegib] | 105.4 | 99.5 | 106.5 | 104.3 | 100.1 | 99.6 | 107.5 | 92.5 | 88.6 | 94.1 | 96.9 | 84.3 | 84.4 | 96.6 | 97.8 | 97.9 | 103.0 | 103.7 | 101.3 | 100.9 | Long-term stability, 6 weeks, 4°C, without daylight Accuracy [%] (validation standard MOV): 109.8%; Long-term stability, 1 month, -20°C Accuracy [%] (validation standard ULOV): 90.5%; Long-term stability, 1 month, -80°C Accuracy [%] (validation standard ULOV): 87.8%; Long-term stability, 2 month, -20°C Accuracy [%] (validation standard ULOV): 94.5%; Long-term stability, 2 month, -80°C Accuracy [%] (validation standard ULOV): 95.1%; Long-term stability, 3 month, -20°C Accuracy [%] (validation standard ULOV): 94.9%; Long-term stability, 3 month, -80°C Accuracy [%] (validation standard ULOV): 93.4%; Long-term stability, 6 weeks, 4°C, without daylight Accuracy [%] (validation standard ULOV): 96.5%
3 | COc1cc2nccc(Oc3ccc(NC(=O)NC4CC4)c(Cl)c3)c2cc1C(N)=O [Lenvatinib] | 99.7 | 94.9 | 97.0 | 100.9 | 103.0 | 104.8 | 105.2 | 109.4 | 107.0 | 102.7 | 108.7 | 105.7 | 110.3 | 127.4 | 95.8 | 94.5 | 98.2 | 97.2 | 99.7 | 100.5 | Long-term stability, 6 weeks, 4°C, without daylight Accuracy [%] (validation standard MOV): 107.3%; Long-term stability, 1 month, -20°C Accuracy [%] (validation standard ULOV): 96.4%; Long-term stability, 1 month, -80°C Accuracy [%] (validation standard ULOV): 94.7%; Long-term stability, 2 month, -20°C Accuracy [%] (validation standard ULOV): 101.7%; Long-term stability, 2 month, -80°C Accuracy [%] (validation standard ULOV): 101.9%; Long-term stability, 3 month, -20°C Accuracy [%] (validation standard ULOV): 98.3%; Long-term stability, 3 month, -80°C Accuracy [%] (validation standard ULOV): 100.8%; Long-term stability, 6 weeks, 4°C, without daylight Accuracy [%] (validation standard ULOV): 101.9%
4 | C#Cc1cccc(Nc2ncnc3cc(OCCOC)c(OCCOC)cc23)c1 [Erlotinib] | 102.3 | 98.1 | 106.4 | 105.9 | 106.0 | 105.8 | 95.9 | 113.5 | 108.0 | 113.2 | 114.8 | 111.5 | 114.1 | 107.0 | 97.4 | 97.0 | 102.2 | 101.3 | 102.2 | 102.8 | Long-term stability, 6 weeks, 4°C, without daylight Accuracy [%] (validation standard MOV): 111.0%; Long-term stability, 1 month, -20°C Accuracy [%] (validation standard ULOV): 99.6%; Long-term stability, 1 month, -80°C Accuracy [%] (validation standard ULOV): 97.8%; Long-term stability, 2 month, -80°C Accuracy [%] (validation standard ULOV): 104.4%; Long-term stability, 3 month, -20°C Accuracy [%] (validation standard ULOV): 101.8%; Long-term stability, 3 month, -80°C Accuracy [%] (validation standard ULOV): 104.4%; Long-term stability, 6 weeks, 4°C, without daylight Accuracy [%] (validation standard ULOV): 103.7%
5 | O=C(c1ccc(F)c(F)c1Nc1ccc(I)cc1F)N1CC(O)([C@@H]2CCCCN2)C1 [Cobimetinib] | 100.8 | 93.9 | 98.0 | 103.4 | 99.0 | 97.6 | 94.8 | 101.1 | 99.0 | 99.0 | 97.9 | 101.3 | 100.3 | 94.5 | 98.9 | 96.8 | 100.8 | 103.3 | 99.2 | 98.4 | Long-term stability, 6 weeks, 4°C, without daylight Accuracy [%] (validation standard MOV): 108.3%; Long-term stability, 1 month, -20°C Accuracy [%] (validation standard ULOV): 100.6%; Long-term stability, 1 month, -80°C Accuracy [%] (validation standard ULOV): 97.3%; Long-term stability, 2 month, -20°C Accuracy [%] (validation standard ULOV): 104.5%; Long-term stability, 2 month, -80°C Accuracy [%] (validation standard ULOV): 103.6%; Long-term stability, 3 month, -20°C Accuracy [%] (validation standard ULOV): 100.6%; Long-term stability, 3 month, -80°C Accuracy [%] (validation standard ULOV): 98.3%; Long-term stability, 6 weeks, 4°C, without daylight Accuracy [%] (validation standard ULOV): 102.4%
6 | CNC(=O)c1cc(Oc2ccc(NC(=O)Nc3ccc(Cl)c(C(F)(F)F)c3)cc2)ccn1 [Sorafenib] | 103.7 | 110.1 | 109.9 | 106.2 | 94.5 | 108.7 | 74.5 | 106.1 | 102.7 | 109.0 | 106.5 | 100.5 | 111.4 | 71.1 | 106.1 | 108.3 | 112.2 | 118.4 | 94.0 | 100.4 | Long-term stability, 6 weeks, 4°C, without daylight Accuracy [%] (validation standard MOV): 106.5%; Long-term stability, 1 month, -20°C Accuracy [%] (validation standard ULOV): 104.5%; Long-term stability, 1 month, -80°C Accuracy [%] (validation standard ULOV): 103.5%; Long-term stability, 2 month, -20°C Accuracy [%] (validation standard ULOV): 116.0%; Long-term stability, 2 month, -80°C Accuracy [%] (validation standard ULOV): 114.3%; Long-term stability, 3 month, -20°C Accuracy [%] (validation standard ULOV): 90.5%; Long-term stability, 3 month, -80°C Accuracy [%] (validation standard ULOV): 102.3%; Long-term stability, 6 weeks, 4°C, without daylight Accuracy [%] (validation standard ULOV): 99.7%
7 | CCCS(=O)(=O)Nc1ccc(F)c(C(=O)c2c[nH]c3ncc(-c4ccc(Cl)cc4)cc23)c1F [Vemurafenib] | 102.1 | 105.7 | 110.6 | 108.1 | 97.3 | 105.9 | 86.3 | 105.8 | 101.6 | 104.5 | 98.7 | 106.2 | 114.9 | 85.9 | 104.9 | 106.7 | 116.1 | 119.1 | 92.9 | 96.8 | Long-term stability, 6 weeks, 4°C, without daylight Accuracy [%] (validation standard MOV): 97.8%; Long-term stability, 1 month, -20°C Accuracy [%] (validation standard ULOV): 104.7%; Long-term stability, 1 month, -80°C Accuracy [%] (validation standard ULOV): 101.7%; Long-term stability, 2 month, -20°C Accuracy [%] (validation standard ULOV): 119.0%; Long-term stability, 2 month, -80°C Accuracy [%] (validation standard ULOV): 112.7%; Long-term stability, 3 month, -20°C Accuracy [%] (validation standard ULOV): 89.5%; Long-term stability, 3 month, -80°C Accuracy [%] (validation standard ULOV): 100.8%; Long-term stability, 6 weeks, 4°C, without daylight Accuracy [%] (validation standard ULOV): 94.4%
8 | N#CC[C@H](C1CCCC1)n1cc(-c2ncnc3[nH]ccc23)cn1 [Ruxolitinib] | 101.5 | 93.0 | 97.7 | 100.0 | 97.5 | 99.4 | 93.8 | 95.6 | 94.6 | 98.6 | 99.8 | 101.8 | 96.5 | 97.9 | 95.8 | 94.2 | 97.7 | 96.8 | 97.0 | 94.6 | Long-term stability, 6 weeks, 4°C, without daylight Accuracy [%] (validation standard MOV): 97.6%; Long-term stability, 1 month, -20°C Accuracy [%] (validation standard ULOV): 95.3%; Long-term stability, 1 month, -80°C Accuracy [%] (validation standard ULOV): 91.6%; Long-term stability, 2 month, -20°C Accuracy [%] (validation standard ULOV): 95.3%; Long-term stability, 2 month, -80°C Accuracy [%] (validation standard ULOV): 95.8%; Long-term stability, 3 month, -20°C Accuracy [%] (validation standard ULOV): 95.4%; Long-term stability, 3 month, -80°C Accuracy [%] (validation standard ULOV): 94.5%; Long-term stability, 6 weeks, 4°C, without daylight Accuracy [%] (validation standard ULOV): 96.6%
